Here are results for 3 compounds from article PMC12184311 (2025).

Experiment [1] relates to 3WJ (DNA, junction) CGGAACGGCACTCG/CGAGTGCAGCGTGG/CCACGCTCGTTCCG
Briefly: PAGE. The note with it: Na+ 50 mM (NaCl), 1X TB, 37 °C 1 h incubation.

Experiment [2] has as its system 4WJ-18 (DNA, junction) GCTAGCTGATACGCTACG/CGTAGCGTACGTTGGTGC/GCACCAACGCGTCACTCC/GGAGTGACGTCAGCTAGC
Briefly: PAGE. The note with it: Na+ 50 mM (NaCl); 1X TB, 37 °C 1 h incubation; 0.25 to 5 equiv; compound induces junction assembly.

Experiment [3] has as its system 4WJ-22 (DNA, junction) GCCTAGCATGATACTGCTACCG/CGGTAGCAGTACCGTTGGTGGC/GCCACCAACGGCGTCAACTGCC/GGCAGTTGACGTCATGCTAGGC
Kind of experiment: PAGE gel shift. The note with it: Na+ 50 mM (NaCl); 1X TB. Background: Mobility shift assays separate free from complexed probe on a gel.

Experiment [4] has as its system FAM-labelled 4WJ-18 (DNA, junction) GCTAGCTGATACGCTACG/CGTAGCGTACGTTGGTGC/GCACCAACGCGTCACTCC/GGAGTGACGTCAGCTAGC
Briefly: PAGE competition, FAM fluorescence. As to conditions: Na+ 50 mM (NaCl); 1X TB, 37 °C 1 h; 1 equivalent Pt-BIMA; competitor unlabelled 4WJ-18, Y fork, dsDNA, 3WJ.

With `[Pd+2].[Pd+2].c1ccc2c(c1)ncn2Cc1c2ccccc2c(Cn2cnc3ccccc32)c2ccccc12.c1ccc2c(c1)ncn2Cc1c2ccccc2c(Cn2cnc3ccccc32)c2ccccc12.c1ccc2c(c1)ncn2Cc1c2ccccc2c(Cn2cnc3ccccc32)c2ccccc12.c1ccc2c(c1)ncn2Cc1c2ccccc2c(Cn2cnc3ccccc32)c2ccccc12`, the binding result in experiment [1] (0.25 to 5 equiv) and in experiment [2] was “yes” in each case.

Turning to `[Pt+2].[Pt+2].c1ccc2c(c1)ncn2Cc1c2ccccc2c(Cn2cnc3ccccc32)c2ccccc12.c1ccc2c(c1)ncn2Cc1c2ccccc2c(Cn2cnc3ccccc32)c2ccccc12.c1ccc2c(c1)ncn2Cc1c2ccccc2c(Cn2cnc3ccccc32)c2ccccc12.c1ccc2c(c1)ncn2Cc1c2ccccc2c(Cn2cnc3ccccc32)c2ccccc12`, the binding result in experiment [1] (0.25 to 5 equiv), in experiment [2], in experiment [3] and in experiment [4] was “yes” each time.

In the case of `C(=Nc1ccc(Cc2ccc(N=Cc3ccccn3)cc2)cc1)c1ccccn1.C(=Nc1ccc(Cc2ccc(N=Cc3ccccn3)cc2)cc1)c1ccccn1.C(=Nc1ccc(Cc2ccc(N=Cc3ccccn3)cc2)cc1)c1ccccn1.[Ni+2].[Ni+2]`, the binding result in experiment [1] (control lane) was “yes”.
